The values below come from patent publication US9598447B2, “Phosphorus-substituted quinoxaline-type piperidine compounds and uses thereof” (Purdue Pharma L.P., priority 2010, dated 2017).

Molecules are shown by their SMILES. Like-named read-outs stand apart in the source and are kept apart here. Some results are limits rather than exact numbers.

The target of this test is delta opioid receptor (Homo sapiens (Human), UniProt P41143). The test is described as follows: In vitro delta-opioid receptor binding assay ([3H]-Naltrindole displacement).
Chain of delta opioid receptor (P41143 whole entry): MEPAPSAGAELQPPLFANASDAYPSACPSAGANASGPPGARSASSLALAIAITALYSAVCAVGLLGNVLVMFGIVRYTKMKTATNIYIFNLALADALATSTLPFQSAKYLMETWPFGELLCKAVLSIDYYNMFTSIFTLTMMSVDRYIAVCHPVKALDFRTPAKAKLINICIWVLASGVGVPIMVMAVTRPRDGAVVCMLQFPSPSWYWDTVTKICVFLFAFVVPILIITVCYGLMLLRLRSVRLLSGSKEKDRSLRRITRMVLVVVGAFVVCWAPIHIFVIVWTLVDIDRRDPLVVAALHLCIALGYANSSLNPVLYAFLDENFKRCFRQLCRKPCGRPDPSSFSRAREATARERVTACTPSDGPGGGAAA
Where [1] appears, read: recombinant receptor expressed in CHO-K1 cells, read-out: Ki [Average ± Std Deviation] Opioid Receptor Delta.

With `O=C(NP(=O)(O)O)c1nc2ccccc2n([C@H]2C[C@H]3CCC[C@@H](C2)N3C2CCCCCCC2)c1=O` [KK, (4-((1R,3R,5S)-9-cyclooctyl-9-azabicyclo[3.3.1]nonan-3-yl)-3-oxo-3,4-dihydroquinoxaline-2-carbonyl)phosphoramidic acid], the Ki is greater than 20 µM.
For the compound `O=c1c(P(=O)(O)O)nc2ccccc2n1[C@H]1C[C@H]2CCC[C@@H](C1)N2C1CCCCCCC1` [DD, (4-((1R,3R,5S)-9-cyclooctyl-9-azabicyclo[3.3.1]nonan-3-yl)-3-oxo-3,4-dihydroquinoxalin-2-yl)phosphonic acid], the Ki under setting [1] is greater than 20 µM.
Still for that read-out and setting: the result for `O=c1c(P(=O)(O)O)nc2ccccc2n1[C@H]1C[C@H]2CC[C@@H](C1)N2C12CC3CC(CC1C3)C2` [BB, (4-((1R,3R,5S)-8-((2R,3as,5S,6aS)-octahydro-2,5-methanopentalen-3a-yl)-8-azabicyclo[3.2.1]octan-3-yl)-3-oxo-3,4-dihydroquinoxalin-2-yl)phosphonic acid] reads greater than 20 µM.
